The text below walks through data of US7744889B2, “Alpha, beta-unsaturated sulfoxides for treating proliferative disorders” (Temple University - Of The Commonwealth System of Higher …, priority 2003, dated 2010).

In general, melting point refers to the temperature of the solid-liquid transition. In general, GI50 refers to the concentration that inhibits growth by half. A lower GI50 goes with more potent growth inhibition.

The test system of one series is DU145, BT20, H157, DLD1. As to the kind of experiment: Effect on tumor cell lines, viability by Trypan blue exclusion after 96 hours. In kind it is cell-based. The conditions noted are these: concentration required for 50% growth inhibition vs vehicle (DMSO) treated cells, doses 10 nM to 5 μM, one class for the four cell lines. As for the experimental part: The effect of the α,β-unsaturated sulfoxides according to Formula I on tumor cells of prostate, colon, lung and breast origin was examined by utilizing the following cell lines: prostate tumor cell line DU-145; colorectal carcinoma cell line DLD-1; non-small cell lung carcinoma cell line H157; and breast tumor cell line BT-20. BT-20 is an estrogen-unresponsive cell line. BT-20, DLD-1 and H157 were grown in Dulbecco's modified Eagle's medium (DMEM) containing 10% fetal bovine serum supplemented with penicillin and streptomycin. DU145 was cultured in RPMI with 10% fetal bovine serum containing penicillin and streptomycin. NIH/3T3 (normal murine fibroblasts) and HFL-1cells (normal diploid human lung fibroblasts) were grown in DMEM containing 10% calf serum supplemented with penicillin and streptomycin.
Cells were plated at density levels of 1.0×10^5 cells per well in six-well plates. Cell cultures were maintained at 37° C. in a humidified atmosphere of 5% CO2.
Cells were treated with compounds of the invention at doses ranging from 10 nM to 5 μM concentration, and cell viability was determined after 96 hours by the Trypan blue exclusion method.
Values are reported as the GI50, i.e., the concentration (μM) required for 50% growth inhibition as compared to vehicle (DMSO) treated cells. The values reported in Table 7 are: ***=10-100 nM; **=100 nM-1μM; and *=>1μM.
Cells were treated with the test compound at concentrations in the range from 10 nM to 5 μM, and cell viability was determined after 96 hours by the Trypan blue exclusion method.

`COc1cc(OC)c(/C=C/[S+]([O-])Cc2ccc(OC)c(O)c2)c(OC)c1` (stereo not drawn) [Example 31] yielded a melting point of 112 to 115 °C. The compound also had a GI50 in the series with DU145, BT20, H157, DLD1 of 10 to 100 nM.
For `COc1cc(OC)c(/C=C/[S+]([O-])Cc2ccc(OC)c(N)c2)c(OC)c1` (stereo not drawn) [Example 33, (E)-2,4,6-trimethoxystyryl-4-methoxy-3-aminobenzylsulfoxide], in that order: 136 to 140 °C and 10 to 100 nM.
The like results for `COc1ccc(C[S+]([O-])/C=C/c2c(OC)cc(OC)cc2OC)cc1` (stereo not drawn) [Example 29] were, in that order, 92 to 94 °C and 100 to 1000 nM.
As to `O=C(O)c1ccc(/C=C/[S+]([O-])Cc2ccc(Cl)cc2)cc1` (stereo not drawn) [Example 32], the melting point lay within 270 to 274 °C.
For `COc1cc(OC)c(/C=C/[S+]([O-])Cc2ccc(OC)c([N+](=O)[O-])c2)c(OC)c1` (stereo not drawn) [Example 30], the melting point fell in the range of 140 to 146 °C. This compound displayed a GI50 with DU145, BT20, H157, DLD1 greater than 1000 nM.
